# Laboratory results: patent publication US20090286722A1 (priority 2005, published 2009)
# No end group written: not given here. *: point of attachment. Palmitoyl = CCCCCCCCCCCCCCCC(=O)*
# How the values were obtained:
# BRIN-BD11 cells = test: Insulin release from BRIN-BD11 cells, GIP alone and combined with antidiabetic drugs; type: cell-based; details: 5.6 mM glucose, 20 minutes; for insulin secretion, combination of agent with GIP compared with either agent alone: 10 nM GIP plus drug; for insulin secretion from BRIN-BD11 cells, agent alone: GIP 10 nM, drugs 25-200 μM
# Method: Acute insulin-release studies were carried out using clonal pancreatic BRIN-BD11 cells, whose origin, characteristics and secretory responsiveness have been outlined in detail elsewhere (Irwin, N. et al., 2005, Biol. Chem. (In Press)). BRIN-BD11 cells were seeded into 24-multiwell plates at a density of 10^5 cells per well and allowed to attach overnight at 37° C.
# dipeptidyl peptidase IV [1] = biological target: dipeptidyl peptidase IV (Sus scrofa, UniProt P22411); test: DPP IV degradation, % intact peptide by HPLC; type: in vitro ADME, porcine; details: pig, purified porcine dipeptidyl peptidase IV (DPP IV), 37° C., pH 7.8
# Method: (§1) HPLC peak area data were used to calculate the percentage intact peptide remaining at the various time points during the incubation.
# [2] = biological target: purified porcine dipeptidyl peptidase IV (Sus scrofa, UniProt P22411); test: DPP IV degradation, % intact peptide by HPLC; type: in vitro ADME; details: 37° C., pH 7.8
# Method: as §1
# ob/ob mice [3] = test: 24 hour plasma glucose and insulin profile after a single dose in non-fasted ob/ob mice; type: in vivo; details: single 12.5 nmol/kg i.p.
# Source text: Dose of 12.5 nmol kg^−1 was chosen to evaluate the longer-term duration of action of a single dose of native or fatty acid derivatised GIP in non-fasted ob/ob mice.
# Normal mice = test: Intraperitoneal glucose tolerance with peptide in younger versus older normal mice; type: in vivo; details: 25 nmol/kg i.p. with glucose 18 mmol/kg, AUC 0-60 min
# Method: Body weight and food intake were recorded over five days before commencement of metabolic tests. Intraperitoneal (i.p.) glucose tolerance (18 mmol/kg body weight) was assessed in non-fasted animals.
# ob/ob mice [4] = test: Acute glucose lowering and insulin release, peptide given i.p. with glucose to 18 hour fasted ob/ob mice; details: 25 nmol/kg i.p. with glucose 18 mmol/kg
# Method: Obese diabetic (ob/ob) mice derived from the colony maintained at Aston University, UK (23) were used at 12-16 weeks of age. […] Drinking water and standard rodent maintenance diet (Trouw Nutrition, Cheshire, UK) were freely available.
# Food intake and body weight were recorded daily from 5 days before commencement of the treatment regimes. Plasma glucose and insulin concentrations (10:00 h) were monitored at 2-4 day intervals. […] All acute tests were commenced at 10:00 h. […] Serum samples were taken for determination of glucagon concentrations. All other blood samples were collected from the cut tip of the tail vein of conscious mice into chilled fluoride/heparin coated glucose microcentrifuge tubes (Sarstedt, Nümbrecht, Germany) at the times indicated in the Figures. Blood samples were immediately centrifuged using a Beckman microcentrifuge (Beckman Instruments, Galway, Ireland) for 30 seconds at 13,000×g. The resulting plasma was then aliquoted into fresh tubes and stored at −20° C. prior to glucose and insulin determinations.
# [5] = test system: dipeptidyl peptidase IV (DPP IV; EC 3.4.15.5); test: in the circulation; details: cited from earlier work
# dipeptidyl peptidase IV [6] = test: purified porcine dipeptidyl peptidase IV (5 mU) in 50 mM triethanolamine-HCl (pH 7.8); details: 37° C., up to 24 hours
# ob/ob mice [7] = test: Daily N-AcGIP(PEG) for 14 days in 12 weeks old ob/ob mice; type: in vivo
# Method: FIG. 27 is a pair of line graphs showing the effects of daily N-AcGIP(PEG) administration on food intake and body weight. N-AcGIP(PEG) (25 nmoles/kg/day) or saline vehicle (control) were administered for the 14-day period. Values are mean±SEM for 8 mice.
# FIG. 28 is a pair of line graphs showing changes of plasma glucose and insulin after daily treatment of ob/ob mice with N-AcGIP(PEG) (25 nmoles/kg/day) or saline vehicle (control) for 14 days. Values are mean±SEM for 8 mice.
# FIG. 29 is a set of line graphs showing the effects of daily N-AcGIP(PEG) administration on glucose tolerance and plasma insulin response to glucose. Tests were conducted after 14 daily injections of either N-AcGIP(PEG) ([…]) or saline vehicle (control). Glucose (18 mmoles/kg) was administered by intraperitoneal injection. Plasma glucose and insulin AUC values for 0-60 min post injection are shown in the right panels. Values are mean±SEM for 8 mice. *p<0.05 compared to control.
# FIG. 30 is a line graph and a bar graph showing the effects of daily N-AcGIP(PEG) administration on insulin sensitivity. Tests were conducted after 14 daily injections of either N-AcGIP(PEG) (25 nmoles/kg/day) or saline vehicle (control). Insulin (50 U/kg) was administered by intraperitoneal injection. Plasma glucose AUC values from baseline for 0-60 min post injection are shown in the right panels. Values are mean±SEM for 8 mice. *p<0.05 compared to control.
# [8] = biological target: purified porcine dipeptidyl peptidase IV (porcine, UniProt P22411 38-766, limits assumed); test: cell-based or functional assay
# [9] = after 14 days, glucose 18 mmol/kg i.p.
# Sequence of purified porcine dipeptidyl peptidase IV (porcine, UniProt P22411 38-766, limits assumed) (P22411 38-766 limits assumed): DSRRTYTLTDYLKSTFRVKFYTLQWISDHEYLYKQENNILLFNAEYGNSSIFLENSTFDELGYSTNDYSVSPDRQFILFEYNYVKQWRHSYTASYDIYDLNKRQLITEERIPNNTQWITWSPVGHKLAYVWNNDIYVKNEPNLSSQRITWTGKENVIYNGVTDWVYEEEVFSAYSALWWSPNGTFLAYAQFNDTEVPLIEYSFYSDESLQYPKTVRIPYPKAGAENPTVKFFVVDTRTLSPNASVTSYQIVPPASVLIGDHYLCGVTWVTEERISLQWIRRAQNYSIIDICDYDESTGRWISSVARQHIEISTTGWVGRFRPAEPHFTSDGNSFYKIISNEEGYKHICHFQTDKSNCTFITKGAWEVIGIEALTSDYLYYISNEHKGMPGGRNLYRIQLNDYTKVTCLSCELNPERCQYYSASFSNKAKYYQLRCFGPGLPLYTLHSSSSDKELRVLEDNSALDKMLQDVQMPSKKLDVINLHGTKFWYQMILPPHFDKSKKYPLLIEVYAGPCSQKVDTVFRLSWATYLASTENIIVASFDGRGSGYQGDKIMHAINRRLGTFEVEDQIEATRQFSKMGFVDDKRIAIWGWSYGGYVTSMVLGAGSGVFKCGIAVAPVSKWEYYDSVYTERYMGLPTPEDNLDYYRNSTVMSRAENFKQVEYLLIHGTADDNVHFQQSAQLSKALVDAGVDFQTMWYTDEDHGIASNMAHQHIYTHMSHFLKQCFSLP
# Sequence of purified porcine dipeptidyl peptidase IV (Sus scrofa, UniProt P22411) (P22411 whole entry): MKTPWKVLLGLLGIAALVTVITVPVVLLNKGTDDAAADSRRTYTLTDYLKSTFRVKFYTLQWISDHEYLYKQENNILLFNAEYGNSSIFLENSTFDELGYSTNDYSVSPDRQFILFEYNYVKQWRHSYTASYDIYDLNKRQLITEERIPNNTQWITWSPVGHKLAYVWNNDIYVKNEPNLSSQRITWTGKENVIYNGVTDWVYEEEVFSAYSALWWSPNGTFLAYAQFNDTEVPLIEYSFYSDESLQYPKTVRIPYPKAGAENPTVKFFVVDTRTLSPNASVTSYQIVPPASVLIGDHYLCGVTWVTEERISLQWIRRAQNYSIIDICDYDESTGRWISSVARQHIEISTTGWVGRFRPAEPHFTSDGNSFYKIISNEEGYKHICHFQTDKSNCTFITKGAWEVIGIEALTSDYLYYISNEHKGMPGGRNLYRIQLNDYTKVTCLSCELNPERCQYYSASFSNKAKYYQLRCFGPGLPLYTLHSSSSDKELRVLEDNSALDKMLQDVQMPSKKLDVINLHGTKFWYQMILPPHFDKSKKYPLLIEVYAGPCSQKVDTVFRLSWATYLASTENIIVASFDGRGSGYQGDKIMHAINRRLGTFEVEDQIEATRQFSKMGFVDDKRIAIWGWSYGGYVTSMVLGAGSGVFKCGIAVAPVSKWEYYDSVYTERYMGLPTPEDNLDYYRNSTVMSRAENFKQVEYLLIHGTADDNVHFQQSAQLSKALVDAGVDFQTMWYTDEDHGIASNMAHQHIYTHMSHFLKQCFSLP
# Sequence of dipeptidyl peptidase IV (Sus scrofa, UniProt P22411) (P22411 whole entry): as above
molecule,measurement,setting,value
COc1ccc(Cl)cc1C(=O)NCCc1ccc(S(=O)(=O)NC(=O)NC2CCCCC2)cc1 [glibenclamide],"insulin secretion, combination of agent with GIP compared with either agent alone",BRIN-BD11 cells,significant potentiation
same,"insulin secretion from BRIN-BD11 cells, agent alone",BRIN-BD11 cells,stimulated insulin secretion
CCCCNC(=O)NS(=O)(=O)c1ccc(C)cc1 [tolbutamide],"insulin secretion, combination of agent with GIP compared with either agent alone",BRIN-BD11 cells,significant potentiation
same,"insulin secretion from BRIN-BD11 cells, agent alone",BRIN-BD11 cells,stimulated insulin secretion
"CC[C@H](C)[C@H](NC(=O)[C@H](CO)NC(=O)[C@H](Cc1ccc(O)cc1)NC(=O)[C@H](CC(=O)O)NC(=O)[C@H](CO)NC(=O)[C@@H](NC(=O)[C@H](Cc1ccccc1)NC(=O)[C@@H](NC(=O)CNC(=O)[C@H](CCC(=O)O)NC(=O)[C@H](C)NC(=O)[C@@H](N)Cc1ccc(O)cc1)[C@@H](C)O)[C@@H](C)CC)C(=O)N[C@@H](C)C(=O)N[C@@H](CCSC)C(=O)N[C@@H](CC(=O)O)C(=O)N[C@@H](CCCCN)C(=O)N[C@H](C(=O)N[C@@H](Cc1c[nH]cn1)C(=O)N[C@@H](CCC(N)=O)C(=O)N[C@@H](CCC(N)=O)C(=O)N[C@@H](CC(=O)O)C(=O)N[C@@H](Cc1ccccc1)C(=O)N[C@H](C(=O)N[C@@H](CC(N)=O)C(=O)N[C@@H](Cc1c[nH]c2ccccc12)C(=O)N[C@@H](CC(C)C)C(=O)N[C@@H](CC(C)C)C(=O)N[C@@H](C)C(=O)N[C@@H](CCC(N)=O)C(=O)N[C@@H](CCCCN)C(=O)NCC(=O)N[C@@H](CCCCN)C(=O)N[C@@H](CCCCN)C(=O)N[C@@H](CC(N)=O)C(=O)N[C@@H](CC(=O)O)C(=O)N[C@@H](Cc1c[nH]c2ccccc12)C(=O)N[C@@H](CCCCN)C(=O)N[C@@H](Cc1c[nH]cn1)C(=O)N[C@@H](CC(N)=O)C(=O)N[C@H](C(=O)N[C@H](C(=O)N[C@@H](CCC(N)=O)C(=O)O)[C@@H](C)O)[C@@H](C)CC)C(C)C)[C@@H](C)CC [Native GIP, reference compound]","remaining at 2 h, 2 mM","dipeptidyl peptidase IV [1]; 2 h incubation with DPP IV (5 mU), read-out: % Intact peptide remaining after time (h) 2",52 ± 3%
same,"remaining at 8 h, 2 mM","dipeptidyl peptidase IV [1]; 8 h incubation with DPP IV (5 mU), read-out: % Intact peptide remaining after time (h) 8",0%
same,"remaining at 24 h, 2 mM","dipeptidyl peptidase IV [1]; 24 h incubation with DPP IV (5 mU), read-out: % Intact peptide remaining after time (h) 24",0%
same,% Intact peptide remaining after time (h) 0,[2]; 0 h incubation with DPP IV (5 mU),100%
same,% Intact peptide remaining after time (h) 2,[2]; 2 h incubation with DPP IV (5 mU),52±3%
same,% Intact peptide remaining after time (h) 8,[2]; 8 h incubation with DPP IV (5 mU),completely degraded
same,effect on plasma glucose over 24 hours,ob/ob mice [3],"transient, but not significant effect"
same,overall plasma glucose response in older mice compared to younger controls,Normal mice,significantly elevated
same,overall plasma insulin response in older mice compared to younger controls,Normal mice,significantly less
same,"insulin secretion from BRIN-BD11 cells, agent alone",BRIN-BD11 cells,stimulated insulin secretion
same,insulin release compared to glucose alone,ob/ob mice [4],significantly greater
same,plasma glucose concentrations and AUC (0-60 min) compared to glucose alone,ob/ob mice [4],neither this nor the overall AUC glucose excursion achieved significance
yaegtfisdysiamdkihqqdfvnwllaqkgkkndwkhnitq,fragment found,[5],"GIP(3-42), major"
same,fragment found,dipeptidyl peptidase IV [6],"GIP(3-42), major, 2 hours"
CC(C)[C@H]1CC[C@H](C(=O)N[C@H](Cc2ccccc2)C(=O)O)CC1 [nateglinide],"insulin secretion, combination of agent with GIP compared with either agent alone",BRIN-BD11 cells,significant potentiation
same,"insulin secretion from BRIN-BD11 cells, agent alone",BRIN-BD11 cells,stimulated insulin secretion
N-AcGIP(PEG): GIP molecule in which PEG is attached to the C-terminus and the Acetyl group to the opposite end,circulating insulin,"ob/ob mice [7]; 25 nmoles/kg/day, 14 days",without appreciable change
same,effect on body weight,"ob/ob mice [7]; 25 nmoles/kg/day, 14 days",did not affect
same,effect on food intake,"ob/ob mice [7]; 25 nmoles/kg/day, 14 days",did not affect
same,non-fasting glucose,"ob/ob mice [7]; 25 nmoles/kg/day, 14 days",decreased
same,glucose tolerance after intraperitoneal glucose load,ob/ob mice [7]; [9],improved glucose tolerance
same,overall glycaemic response after intraperitoneal glucose load,ob/ob mice [7]; [9],reduced the overall glycaemic response
same,plasma insulin concentrations and insulin response to intraperitoneal glucose,ob/ob mice [7]; [9],enhanced
same,plasma glucose after administration of insulin (insulin sensitivity),"ob/ob mice [7]; after 14 days, insulin 50 U/kg i.p.",lower plasma glucose concentrations
YAEGTFISDYSIAMDKIHQQDFVNWLLAQKGKKNDWKHNITQ (C-16 palmitoyl group on the epsilon amino group of Lys 16) [GIP(LysPAL^16)],% Intact peptide remaining after time (h): 0,[8],100%
same,% Intact peptide remaining after time (h): 2,[8],100%
same,% Intact peptide remaining after time (h): 8,[8],100%
same,% Intact peptide remaining after time (h): 24,[8],100%
"YAEGTFISDYSIAMDKIHQQDFVNWLLAQKGKKNDWKHNITQ [native GIP (glucose-dependent insulinotropic polypeptide; gastric inhibitory polypeptide), GIP(1-42)]",% Intact peptide remaining after time (h): 0,[8],100%
same,% Intact peptide remaining after time (h): 2,[8],52%
same,% Intact peptide remaining after time (h): 8,[8],0%
same,% Intact peptide remaining after time (h): 24,[8],0%
YAEGTFISDYSIAMDKIHQQDFVNWLLAQKGKKNDWK(Palmitoyl)HNITQ [GIP(LysPAL^37)],% Intact peptide remaining after time (h): 0,[8],100%
same,% Intact peptide remaining after time (h): 2,[8],100%
same,% Intact peptide remaining after time (h): 8,[8],100%
same,% Intact peptide remaining after time (h): 24,[8],100%
